Calls of active or inactive are those of the source. No cut-off for these calls is given here.
molecular target: Bromodomain-containing protein 4 (Homo sapiens, UniProt O60885); assay: Inhibition of recombinant human N-terminal His6-tagged Brd4-BD1 expressed in Escherichia coli BL21(DE3) by LOGSY NMR titration method

SMILES | inhibition | IC50
Cc1nnc2ccc(N(C)Cc3ccc(F)c(F)c3)nn12 | Active | –
Cc1nnc2c(N)cc(-c3cnn(C)c3Oc3ccccc3)nn12 | Active | –
COc1ccc(-c2ccc3nnc(C)n3n2)cc1OC | – | 24 µM
CNc1cc(-c2ccccc2)nn2c(C)nnc12 | Active | –
Cc1nnc2ccc(-c3cnn(C)c3Oc3ccccc3)nn12 | – | 2 µM
CNc1cc(N(C)Cc2ccccc2)nn2c(C)nnc12 | Active | –
Cc1nnc2ccc(-c3ccccc3)nn12 | Active | –
